Laboratory results: patent publication US20100016421A1, “METHODS FOR DETERMINING SENSITIVITY TO AMINOFLAVONES” (priority 2008, published 2010)
Where two headings read alike, the source gives them in different places. Values belong to the compound of their own block, whether it stands above or below them.

Experiments:
[1] = system: BT 20; assay: MTT assay, BT 20 breast cancer cell line; format: cell-based; conditions: Homo sapiens; BT 20, mean of three independent MTT experiments; read-out: AF IC50
Procedure: (§1) The inhibitory concentration 50% were determined by MTT assay and following the NCI DTP in vitro testing procedures (http://dtp.nci.nih.gov/branches/btb/ivclsp.html). Three independent MTT in vitro tumor cell growth inhibition experiments were conducted and a mean IC50 value generated as shown in Table 4.

[2] = system: MDA-MB-231; assay: MTT assay, MDA-MB-231 breast cancer cell line; format: cell-based, human; conditions: for IC50: Homo sapiens
Procedure: (§2) The breast cancer cell lines shown in Table 2 were screened to determine the localization of the aryl hydrocarbon receptor (AhR) in accordance with the techniques discussed above. MTT assays were conducted to measure cell death on various breast cancer cell lines.
as §1

[3] = system: HCC1937; assay: MTT assay, HCC1937 breast cancer cell line; format: cell-based; conditions: Homo sapiens
Excerpt: (§3) AhR localization correlates with cytotoxic activity of AFP464, as discussed above. […] The growth curves for all three cell lines resulting from 5 day continuous exposure of the cells to AFP464 in 96-well plates and the detection of cell growth by conversion of methyltetrazolium into formazan by viable cells (MTT assay) are shown. All cell lines in FIG. 3 have defects in the BRCA tumor suppressor genes responsible for very aggressive forms of hereditary breast and ovarian cancer. MX-1 have BRCA1 deletions and BRCA2 mutations, HCC1937 are BRCA1 mutant and completely defective, IGROV1 are defective for BRCA2 (±).
as §1

[4] = system: T47D; assay: MTT assay, T47D breast cancer cell line; format: cell-based, human; conditions: for IC50: Homo sapiens
Procedure: as §2, §1

[5] = system: Hs578t; assay: MTT assay, Hs578t breast cancer cell line; format: cell-based, human
Procedure: as §1

[6] = system: MCF10A; assay: MTT assay, MCF10A normal breast cell line; format: cell-based, human; conditions: for IC50: Homo sapiens, MCF-10A
Procedure: as §2, §1

[7] = system: MCF-7 TAM1; assay: MTT assay, MCF-7 TAM1 cell line; format: cell-based, human; conditions: for IC50: Homo sapiens, MCF7:TAM1
Procedure: as §2, §1

[8] = system: SKBR3, T47D, MCF-7, MCF-7 Tam1, and MCF-7 Her2-18 cell lines; assay: MTT assay, luminal type cell lines (summary); format: cell-based; conditions: Homo sapiens; range over luminal type cell lines; read-out: AF IC50 concentrations
Procedure: as §1
(§4) The SKBR3, T47D, MCF-7, MCF-7 Tam1, and MCF-7 Her2-18 cell lines are all of a luminal type gene cluster. […] Based on previous NCI cell line screen results discussed above, ER-negative tumors were thought to be resistant to aminoflavone. […] Thus, the gene profile relating to ER status alone may not predict the sensitivity of the tumor to treatment with AF. AFP464 is not only effective in ER-positive breast cancer cells, which are always of luminal type histologies, but are also effective in the basal A subtype of ER-negative breast cancers.

[9] = system: ER-negative, or “triple-negative,” or basal B breast cancer cell lines; assay: Sensitivity to aminoflavone after HDAC inhibitor pre-treatment; format: cell-based; conditions: Homo sapiens
[10] = system: MCF-7; assay: MTT assay, MCF-7 breast cancer cell line; format: cell-based, human; conditions: for IC50: Homo sapiens, MCF7
Procedure: as §2, §1

[11] = system: MDA-MB-468; assay: MTT assay, MDA-MB-468 breast cancer cell line; format: cell-based; conditions: Homo sapiens; MDA-MB-468, mean of three independent MTT experiments; read-out: AF IC50
Procedure: as §1

[12] = system: SKBR3; assay: MTT assay, SKBR3 breast cancer cell line; format: cell-based; conditions: Homo sapiens, SK-BR-3; SKBR3, mean of three independent MTT experiments; read-out: AF IC50
Procedure: as §1

[13] = system: MCF-7 HER2-18; assay: MTT assay, MCF-7 HER2-18 cell line; format: cell-based, human; conditions: for IC50: Homo sapiens
Procedure: as §2, §1

[14] = system: HCC1937, BT 20, MDA-MB-468, and SKBR3 ER-negative tumor cells; assay: MTT assay, sensitive ER-negative cell lines (summary); format: cell-based; conditions: Homo sapiens; range over sensitive ER-negative cell lines; read-out: AF IC50 concentrations
Procedure: as §1, §4

[15] = Maximum tolerated dose; conditions: mouse, in vivo, iv; intravenously
Procedure: Next, the treatment and data evaluation will be discussed. […] The maximum tolerated dose (MTD) for AFP464 was determined prior to initiation of the experiment as 75 mg/kg/d intravenously. […]. […] AFP464 was given on days 1, 3, 5, 15, 17, and 19.

[16] = system: γ-H2AX foci in MCF-7 HER2-18; assay: Immunofluorescence of phosphorylated γ-H2AX, MCF-7 HER2-18; format: cell-based, human
Excerpt: (§5) The phosphorylated γ-H2AX is an indicator of a DNA-damage response in cells.

[17] = system: CYP1A1; assay: Real time PCR of CYP1A1 expression, MDA-MB-231
[18] = system: AG6000; assay: Cytotoxicity, AG6000 ovarian cancer cell line; format: cell-based; conditions: Homo sapiens
Excerpt: (§6) Similarly, the ovarian cancer cell lines shown in Table 3 were screened to determine the localization of the Aryl hydrocarbon receptor (AhR). As shown below, and further illustrated in FIGS. 2 and 3, all cell lines where the AhR is localized predominantly in the cytoplasm (e.g. OVCAR-3 and IGROV-1) were more sensitive to treatment with AFP464 than tumor cells where the AhR is localized predominantly in the nucleus (e.g., OVCAR-8).

[19] = system: γ-H2AX foci in MCF-7 TAM1; assay: Immunofluorescence of phosphorylated γ-H2AX, MCF-7 TAM1; format: cell-based, human
Excerpt: as §5

[20] = system: γ-H2AX foci in MCF10a; assay: Immunofluorescence of phosphorylated γ-H2AX, MCF10a; format: cell-based, human
Excerpt: as §5

[21] = system: MX-1; assay: MTT assay, MX-1 triple negative breast cancer cell line; format: cell-based; conditions: Homo sapiens, MX1, 120 h, MX-1, 5 day continuous exposure
Excerpt: as §3

[22] = system: A2780; assay: Cytotoxicity, A2780 ovarian cancer cell line; format: cell-based; conditions: Homo sapiens
Excerpt: as §6

[23] = system: IGROV-1; assay: Cytotoxicity (MTT), IGROV-1 ovarian cancer cell line; format: cell-based; conditions: Homo sapiens
Excerpt: as §6, §3

[24] = system: OVCAR-3; assay: Cytotoxicity, OVCAR-3 ovarian cancer cell line; format: cell-based; conditions: Homo sapiens
Excerpt: as §6

[25] = system: CYP1B1; assay: Real time PCR of CYP1B1 expression, MDA-MB-231
[26] = system: γ-H2AX foci in MCF-7; assay: Immunofluorescence of phosphorylated γ-H2AX, MCF-7; format: cell-based, human
Excerpt: as §5

[27] = system: γ-H2AX foci in T47D; assay: Immunofluorescence of phosphorylated γ-H2AX, T47D; format: cell-based, human
Excerpt: as §5

[28] = system: OVCAR-8; assay: Cytotoxicity, OVCAR-8 ovarian cancer cell line; format: cell-based; conditions: Homo sapiens
Excerpt: as §6

[29] = system: human tumor xenograft MDA-MB-231; assay: MDA-MB-231 subcutaneous xenograft in nude mice
[30] = system: ADDP; assay: Cytotoxicity, ADDP ovarian cancer cell line; format: cell-based; conditions: Homo sapiens
Excerpt: as §6

[31] = system: ER-positive cell lines; conditions: NCI 60 screen, read-out: sensitivity (order of magnitude); cited from earlier work
[32] = system: γ-H2AX foci in MDA-MB-231; assay: Immunofluorescence of phosphorylated γ-H2AX, MDA-MB-231; format: cell-based, human
Excerpt: as §5

[33] = in mice; cited from earlier work
[34] = system: ERα in MDA-MB-231; assay: Western blot of ERα induction, MDA-MB-231; format: cell-based, human; conditions: MDA-MB-231, 60 hours at […] and 13.5 μM
Procedure: Lane 1 of each of FIGS. 4A and 4B is a control in which the respective cells were treated with DMSO.

[35] = mean of three independent MTT experiments, read-out: AF IC50
[36] = MDA-MB-231, SAHA for 48 hours followed by AFP464 for 6 hours
[37] = MDA-MB-231, SAHA for 48 hours followed by AFP464 for 24 hours

IC50 [1]: 0.02 µM
IC50 ([2]; MDA-MB-231, mean of three independent MTT experiments, read-out: AF IC50): 25 µM
IC50 ([3]; HCC1937, mean of three independent MTT experiments, read-out: AF IC50): 0.01 µM
IC50 [4, 35]: 0.014 µM
IC50 ([5]; Homo sapiens, Hs-578T, Hs578t, mean of three independent MTT experiments, read-out: AF IC50): 20 µM
IC50 ([7]; MCF-7 Tam1, mean of three independent MTT experiments, read-out: AF IC50): 0.025 µM
IC50 [8]: 0.016 to 0.02 µM
IC50 [9]: ~1 µM
IC50 ([10]; MCF-7, mean of three independent MTT experiments, read-out: AF IC50): 0.016 µM
IC50 [11]: 0.012 µM
IC50 [12]: 0.016 µM
IC50 ([13]; MCF-7 Her2-18, mean of three independent MTT experiments, read-out: AF IC50): 0.02 µM
IC50 [14]: 0.01 to 0.02 µM
SMILES: Cc1c(F)c(N)c2c(=O)cc(-c3ccc(N)c(F)c3)oc2c1F [AF, aminoflavone]
IC50 [6, 35]: 3 µM

SMILES: Cc1c(F)c(N)c2c(=O)cc(-c3ccc(NC(=O)[C@@H](N)CCCCN)c(F)c3)oc2c1F [AFP464]
IC50 ([2]; MDA-MB-231, MTT, read-out: IC50): 25 µM
IC100 ([2]; MDA-MB-231, MTT): >100 µM
IC50 ([3]; 120 h, HCC1937, 5 day continuous exposure, MTT, read-out: IC50): 0.01 to 0.2 µM
MTD [15]: 75 mg/kg/day
γ-H2AX Foci [16]: yes
expression of RNA for CYP1A1 [17, 36]: increased expression
expression of RNA for CYP1A1 [17, 37]: little expression
IC50 ([4]; MTT, read-out: IC50): 0.014 µM
IC100 ([4]; MTT): 20 nM
IC50 ([6]; MTT, read-out: IC50): 3 µM
IC100 ([6]; MTT): 9 µM
IC50 [18]: > 10 µM
IC50 ([7]; MCF-7 TAM1, MTT, read-out: IC50): 0.025 µM
IC100 ([7]; MCF-7 TAM1, MTT): 200 nM
γ-H2AX Foci [19]: yes
γ-H2AX Foci [20]: no
IC50 [21]: 30 µM
IC50 [22]: 5 µM
IC50 ([23]; IGROV-1): 0.42 µM
IC50 ([23]; IGROV-1, 120 h, IGROV1, 5 day continuous exposure, MTT): 0.01 to 0.2 µM
IC50 [24]: 0.252 µM
expression of RNA for CYP1B1 [25, 36]: increased expression
expression of RNA for CYP1B1 [25, 37]: little expression
γ-H2AX Foci [26]: yes
γ-H2AX Foci [27]: yes
IC50 [28]: 13 µM
IC50 ([10]; MCF-7, MTT, read-out: IC50): 0.016 µM
IC100 ([10]; MCF-7, MTT): 300 nM
% Growth Inhibition [d29] ([29]; AFP464 35 mg/kg i.v. Day 1, 3, 5, 15, 17, 19): 23%
Opt. Test/Control % [d] ([29]; AFP464 35 mg/kg i.v. Day 1, 3, 5, 15, 17, 19, optimum d26): 77 [d26] %
% Growth Inhibition [d29] ([29]; AFP464 70 mg/kg i.v. Day 1, 3, 5, 15): 15%
Opt. Test/Control % [d] ([29]; AFP464 70 mg/kg i.v. Day 1, 3, 5, 15, optimum d28): 85 [d28] %
IC50 ([13]; MCF-7 HER2-18, MTT, read-out: IC50): 0.02 µM
IC100 ([13]; MCF-7 HER2-18, MTT): 375 nM
IC50 [30]: 2.5 µM
IC50 [31]: ~0.01 µM
γ-H2AX Foci [32]: no

SMILES: O=C(CCCCCCC(=O)Nc1ccccc1)NO [SAHA, suberoylanilide hydroxamic acid, reference compound]
IC100 ([2]; SAHA in MDA-MB-231): 13.5 µM
MTD [33]: 175 mg/kg/day
IC100 ([5]; SAHA in Hs578T): 100 µM
ERα induction [34]: increases
Opt. Test/Control % [d] ([29]; Vorinostat 50 mg/kg p.o. Day −3 to −1, 12-14, optimum d26): 71 [d26] %
